Read-outs that look alike come from different tables or passages of the source. Ends that are not written are not given here.
Key:
[1] = molecular target: T1, secreted soluble GalNAc-T4 (sT4) (Homo sapiens, UniProt Q8N4A0); assay: Direct binding ELISA to GalNAc-MUC1 glycopeptide, competitive inhibition, sT4; settings: binding to GalNAc-MUC1 glycopeptide
T1 construct: using the GalNAc-T4-sol construct that encodes residues 32-578 inserted into pT7T3U19; 6xHis (N); thrombin cleavage site (N); T7 tag (N); made in house; host or cells: High Five insect cells (baculovirus)
Protocol: (§1) Protein biotinylation was made as previously reported^62. The pH of 1 ml purified protein (0.3 mg/ml) in PBS was adjusted to pH 9 with 1 M NaOH and 40 μl N-hydroxy-succinimidobiotin (Sigma) dissolved in DMF (10 mg/ml) was added. The solution was mixed end-over-end for 2 hours at room temperature, and dialyzed three times against PBS and an equal volume of glycerol was added. The biotinylated proteins were stored at −20° C. in 50% glycerol until use.
(§2) Direct binding ELISA assay was developed as follows: Polystyrene microtiter plates (Maxisorb, Nunc, Denmark) were coated with peptides or enzymatically glycosylated glycopeptides in PBS overnight at 4° C. Plates were washed and blocked with 0.1% Tween20 and 0.2% BSA in PBS for 1 h at room temperature, followed by incubation with biotinylated proteins in PBS with 0.05% Tween20 for 2 h at room temperature. After four washes with PBS, plates were incubated with 1:2,000 dilution streptavidin-HRP (Sigma) in PBS for 30 min at room temperature and washed four times with PBS. Development was performed with 0.5 mg/ml o-phenylenediamine and 0.02% H2O2 at room temperature for 15 min, and reaction stopped by adding 100 μl/well of 0.5 N H2SO4. Competitive inhibition assays were done at end-point titers of GalNAc-transferase proteins with one hour preincubations with inhibitor.
(§3) In binding studies using lectins without biotinylation antibodies to the HIS-tag and the T7-tag, or in some experiments antibodies raised to GalNAc-T2 and -T4 enzymes were used to detect binding.

[2] = molecular target: T2, GalNAc-T4 lectin domain (T4ld) (Homo sapiens, UniProt Q8N4A0); assay: Direct binding ELISA to GalNAc-MUC1 glycopeptide, competitive inhibition, T4ld
T2 construct: made in house; host or cells: High Five insect cells (baculovirus, pAcGP67-A)
Protocol: as §1, §2, §3

[3] = molecular target: Helix Pomatia lectin (HPA) (Helix pomatia, UniProt Q2F1K8); assay: Direct binding ELISA, competitive inhibition, Helix Pomatia lectin control; settings: read-out: Concentration required for 50% inhibition (IC50), HPA; control plant lectin
From the text: Glycopeptides were purified by C-18 reverse phase HPLC. Peptides were custom synthesized by Neosystems (Strasbourg). Biotinylated Helix Pomatia lectin (HPA) was from KemEnTec (Denmark). Anti-MUC1 HMFG2 monoclonal antibody was a generous gift from Joyce Taylor-Papadimitriou. Anti-MUC1 SE5 monoclonal antibody was developed by immunizing Balb/c mice with 60-mer MUC1 tandem repeat peptide glycosylated with 5 moles GalNAc per repeat. Monoclonal antibodies to the lectin domains of human GalNAc-T2 and -T4 were developed as previously described^8, 63.
as §2
Inhibition experiments were used to further define the binding specificity of GalNAc-T2 and -T4 secreted soluble enzymes as well as lectin domains compared to Helix Pomatia lectin (Table VII).

[4] = molecular target: T3, GalNAc-T2 lectin domain (T2ld) (Homo sapiens, UniProt Q10471); assay: Direct binding ELISA to GalNAc-MUC1 glycopeptide, competitive inhibition, T2ld
T3 construct: made in house; host or cells: High Five insect cells (baculovirus, pAcGP67-A)
T3 sequence (Q10471 408-571): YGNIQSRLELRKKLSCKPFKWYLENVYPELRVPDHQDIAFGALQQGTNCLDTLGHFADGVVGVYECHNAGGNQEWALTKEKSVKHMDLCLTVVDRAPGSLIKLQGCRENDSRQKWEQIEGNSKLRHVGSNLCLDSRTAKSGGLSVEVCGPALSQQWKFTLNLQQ
Protocol: as §1, §2, §3

[5] = molecular target: T4, secreted soluble GalNAc-T2 (sT2) (Homo sapiens, UniProt Q10471); assay: Direct binding ELISA to GalNAc-MUC1 glycopeptide, competitive inhibition, sT2; settings: read-out: Concentration required for 50% inhibition (IC50), sT2
T4 construct: HIS-tagged secreted human GalNAc-T2 and -T4 were prepared from pAC-GP67-T2-sol and pAC-GP67-T4-sol cDNA; 6xHis (N); thrombin cleavage site (N); T7 tag (N); made in house; host or cells: High Five insect cells (baculovirus)
Protocol: as §1, §2, §3

GalNAc-T2 = molecular target: T5, GalNAc-T2 (Homo sapiens, UniProt Q10471); assay: GalNAc-T2 transferase activities with UDP-GalNAc or UDP-Gal donor (Muc2 acceptor, peptide panel); type: biochemical; settings: peptide as acceptor substrate
T5 construct: Soluble, secreted expression constructs of human GalNAc-transferases GalNAc-T1, -T2, -T3, -T4, -T6, -T7, and -T11; made in house; host or cells: insect cells (baculovirus)
Protocol: (§4) Standard reaction mixtures (50 μl final volume) contained 25 mM cocadylate (pH 7.4), 10 mM MnCl2, 0.25% Triton X-100, 200 μM UDP-[^14C]-GalNAc (2,000 cpm/nmol) (Amersham), 200-500 μM acceptor peptides. Products were quantified by scintillation counting after chromatography on Dowex-1, octadecyl silica cartridges (Bakerbond), or HPLC (PC3.2/3 or mRPC C2/C18 SC2.1/10 Pharmacia, Smart System). […] Glycopeptides were purified on Supelclean LC-18 columns (1 ml, Supelco), and the number of GalNAc residues incorporated evaluated by MALDI-TOF mass spectrometry. The enzyme sources used were semipurified as previously described by successive sequential ion-exchange chromatographies on Amberlite (IRA95, Sigma) or DEAE Sephacel (Pharmacia), S-Sepharose Fast Flow (Pharmacia), and Mini-S™ (PC 3.2/3, Pharmacia) using the Smart System (Pharmacia) (28). Secreted GalNAc-T4 was obtained from a stably transfected CHO line (CHO/GalNA-T4/21A) (8) grown in roller bottles in HAMS F12 supplemented with 10% Fetal Bovine Serum. The experiments illustrated in FIG. 1 was performed with recombinant secreted GalNAc-T4 obtained from a stably transfected CHO line (8). Experiments illustrated in FIGS. 2 and 3 were performed with secreted GalNAc-T4 expressed in High Five cells grown in serum-free medium (8). Structural analysis of glycopeptides were performed by a combination of PFPA (pentafluoropropionic acid) hydrolysis and MALDI-TOF mass spectrometry as previously described (40). Secreted GalNAc-T7 was obtained from infected High Five™ cells grown in serum-free medium (Invitrogen) in upright roller bottles shaken 140 rpm in waterbaths at 27° C. GalNAc-T7 was not purified by Mini-S as the yields from cationic chromatography were low due to its low pI (6.4).
(§5) Galactosyl transferring activities of GalNAc-T1, -T2, and -T3, were assayed with a panel of acceptor peptides in standard reaction mixtures containing 100 μM UDP-Gal instead of UDP-GalNAc. […] Further, analysis was performed with 10 mM α-D-GalNAc-1-benzyl, αGlcNAc-benzyl, and fully occupied GalNAc-glycopeptide, GalNAC6TAP25, at 5 mM.

GalNAc-T3 = molecular target: T6, GalNAc-T3 (Homo sapiens, UniProt Q14435); assay: GalNAc-T3 transferase activities with UDP-GalNAc or UDP-Gal donor (EA2 acceptor, peptide panel); type: biochemical; settings: peptide as acceptor substrate
T6 construct: Soluble, secreted expression constructs of human GalNAc-transferases GalNAc-T1, -T2, -T3, -T4, -T6, -T7, and -T11; made in house; host or cells: insect cells (baculovirus)
T6 sequence (Q14435 38-633 limits assumed): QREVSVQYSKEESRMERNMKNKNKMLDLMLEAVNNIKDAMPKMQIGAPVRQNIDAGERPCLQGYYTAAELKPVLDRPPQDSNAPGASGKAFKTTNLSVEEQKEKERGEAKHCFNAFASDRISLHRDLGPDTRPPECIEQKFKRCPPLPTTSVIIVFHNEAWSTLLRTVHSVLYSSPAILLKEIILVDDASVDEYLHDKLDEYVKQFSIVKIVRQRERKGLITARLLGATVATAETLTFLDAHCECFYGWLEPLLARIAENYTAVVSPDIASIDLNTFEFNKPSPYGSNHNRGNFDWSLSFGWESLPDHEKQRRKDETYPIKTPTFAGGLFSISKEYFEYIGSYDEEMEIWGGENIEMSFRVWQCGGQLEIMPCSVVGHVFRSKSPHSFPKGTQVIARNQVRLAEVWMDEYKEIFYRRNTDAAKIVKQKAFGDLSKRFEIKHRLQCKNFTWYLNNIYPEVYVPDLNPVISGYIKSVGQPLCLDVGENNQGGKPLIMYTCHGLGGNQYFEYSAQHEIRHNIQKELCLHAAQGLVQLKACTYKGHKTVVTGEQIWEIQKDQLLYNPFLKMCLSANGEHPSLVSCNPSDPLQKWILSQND
Protocol: as §4, §5

[6] = read-out: Concentration required for 50% inhibition (IC50), sT4
[7] = read-out: Concentration required for 50% inhibition (IC50), T2ld

Compound | IC50 [1, 6] [mM] | IC50 [3] [mM] | GalNAc-T2 activity with UDP-Gal by acceptor peptide (GalNAc-T2) [nmol/min/mL] | GalNAc-T3 activity with UDP-Gal by acceptor peptide (GalNAc-T3) [nmol/min/mL] | further results
CC(=O)N[C@H]1[C@H](Oc2ccccc2[N+](=O)[O-])O[C@H](CO)[C@H](O)[C@@H]1O [oNPβGalNAc] |  | > 20 |  |  | IC50 [1]: 1 mM; IC50 [2]: 8 mM; IC50 [4]: > 12 mM
EA2: acceptor peptide PTTDSTTPAPTTK derived from rat submandibular gland mucin |  |  | 1.5 | 6.8 | 
Muc2: acceptor peptide PTTTPISTTTMVTPTPTPTC derived from human intestinal mucin MUC2 |  |  | 90 | 0 | 
uridine diphospho-N-acetylgalactosamine [UDPαGalNAc] | 30 |  |  |  | IC50 [4, 7]: > 100 mM; IC50 [5]: 65 mM

Continued, in another order:

IC50 [1, 6] [mM] | IC50 [3] [mM] | GalNAc-T2 activity with UDP-Gal by acceptor peptide (GalNAc-T2) [nmol/min/mL] | GalNAc-T3 activity with UDP-Gal by acceptor peptide (GalNAc-T3) [nmol/min/mL] | Compound | further results
> 100 | > 100 |  |  | O=c1ccn([C@@H]2O[C@H](COP(=O)(O)OP(=O)(O)O)[C@@H](O)[C@H]2O)c(=O)[nH]1 [UDP] | IC50 ([2]; read-out: Concentration required for 50% inhibition (IC50), T4ld): > 100 mM; IC50 [4, 7]: > 100 mM; IC50 [5]: > 100 mM
0.8 | > 20 |  |  | CC(=O)N[C@H]1[C@H](Oc2ccc([N+](=O)[O-])cc2)O[C@H](CO)[C@H](O)[C@@H]1O [pNPβGalNAc] | 
 |  | 13 | 0.1 | Muc7: acceptor peptide Ac-CPPTPSATTPAPPSSSAPPETTAA derived from human salivary gland mucin MUC7 | 
